Laboratory results taken from publication PMC9400670, “Establishing the selective phospholipid membrane coordination, permeation and lysis properties for a series of ‘druggable’ supramolecular self-associating antimicrobial amphiphiles” (Chemical Science, 2022).
Values after ≈ are worked out from the molar mass of the structure shown.

How the values were obtained:
MRSA USA300 [1] = details: n = 3, 0.5 McFarland standard, after 900 min, number in bracket = efficacy rank; cited from earlier work
E. coli DH10B [2] = assay: MIC50 determination and initial screening from OD600 growth curves, E. coli DH10B; type: cell-based, Escherichia coli; details: Escherichia coli, 15 h; Table S3, conversion of the mM values of Table 1; E. coli DH10B; after 900 mins
Description: (§1) The antimicrobial activity of SSAs 1–14 was established against both a model Gram-positive, clinically relevant methicillin resistant Staphylococcus aureus (MRSA), and a model Gram-negative, E. coli bacteria, Table 1. Here MIC50 values are given in mM to enable the derivation of molecular structure: antimicrobial efficacy: physical property relationships. […]
(§2) Data were acquired in endpoint mode. […]
(§3) Section 3: Microbial Methods
(§4) These methods were taken directly from UK Health and Security Office (UKHSA) standard operating […]
(§5) Preparation of Luria Broth media (LB): Yeast extract (5 g), tryptone (10 g) and sodium chloride (10 g) were dissolved in dH₂O (1 L) then divided into bottles and autoclaved.
(§6) Preparation of Luria Broth (LB) agar plates: Agar (6 g) was added to LB (400 mL) and autoclaved. Once cool, the LB agar was poured into sterile petri dishes under sterile conditions and allowed to set. LB plates were stored at 4 °C until use.
(§7) Preparation of bacterial plates: Sterile LB agar plates were streaked using Escherichia coli DH10B or USA300 Methicillin-Resistant Staphylococcus aureus then incubated at 37 °C overnight.
(§8) Preparation of Inoculum: An initial culture was made up by inoculating LB media (5 mL) with a single colony of bacteria under sterile conditions and incubated at 37 °C with shaking overnight. The following day, overnight bacterial cultures were subcultured into fresh LB medium to a starting OD600 […]
(§9) Preparation of 96 well microplate for screening: 20 mM solutions of each compound to be tested were made up using 5 % ethanol. The 1:100 cell suspension (150 µL) was pipetted into the wells and SSA compound solutions (30 µL) were added into each well. The final screening concentration for each compound was 3.3 mM in the well. These were incubated for 20 hours in a plate reader, with optical density readings being taken at 600 nm every 15 minutes. Optical density readings were plotted against time to produce growth curves. […]
(§10) individual wells under sterile conditions. Compounds (30 µL) were added to the wells to equal a total volume of 180 µL in the wells. Six repeats of each concentration for each compound were created each plate. The plates were sealed using parafilm, then incubated at 37°C in a microplate reader for 18-25 hours. Optical density readings were taken at 600 nm every 15 min. Data was used to generate […]
(§11) Calculation of MIC50: Growth curves were plotted using OD600 optical density readings in Microsoft ® Excel ® 2013. OD600 optical density readings 900 minutes from the start of each of these growth cultures for each concentration of compound were plotted in Origin ® 2015. The resultant curve was normalized and fitted using the Boltzmann fit to define the MIC50 values for each compound.

E. coli DH10B [3] = details: after 900 min, cited from earlier work
[4] = system: calcein loaded phospholipid vesicles (PC, PG, PE-PG mix, E. coli total, E. coli polar); assay: Synthetic phospholipid vesicle lysis (calcein leakage) assay; details: SSA 1.5 mM; thirty seconds after SSA addition; five vesicle types; in words
Description: Here, samples of phospholipid vesicles containing the fluorescent dye calcein were prepared. At internal vesicle concentrations, this dye undergoes self-quenching. […] The increase in fluorescence output is proportional to the % of vesicle lysis observed upon the addition of SSAs 1–14, when calibrated against a solution of vesicles know to have undergone 100% lysis, see Fig. 5.
Fig. 5 The average (n = 3) percentage lysis (%) of vesicles (30 μM) composed of five different lipid compositions (Table 2), with an internal calcein concentration of 70 mM at 298 K. The % vesicle lysis was calculated through observation of increasing fluorescence emission (λem = 515 nm), following the addition of SSAs […] (1.5 mM) in a H2O/EtOH 95 : 5 solution after: (a) 30 s and; (b) 15 min. Triton X-100 (1%) was used as a positive control for 100% vesicle lysis. Data normalised to the addition of a H2O/EtOH 95 : 5 solution. Red = PC, yellow = PG, green = PE-PG mix, blue = E. coli total, pink = E. coli polar. Error = standard error.
Section 2: General Methods […]
Preparation of vesicles: All lipids were purchased as powder stocks from Avanti Polar Lipids. Lipid vesicles were prepared according to standard procedures.1 Each phospholipid was dissolved in chloroform (~ 10 mL) and the solvent was removed under reduced pressure. The thin film of dried lipid was further dried in vacuo for at least 2 hours. Lipid films were resuspended in the desired buffer and subjected to 9 freeze-thaw cycles in liquid nitrogen and extruded 20 times through a 200 nm […]
Preparation of calcein loaded vesicles: Lipid films were resuspended in buffer A (70 mM calcein, 10 mM TRIS pH 8.5, 0.5 mM EDTA, 110 mM NaCl, pH adjusted to 6-7) and subjected to 9 freeze-thaw cycles in liquid nitrogen and extruded 20 times through a 200 nm polycarbonate membrane. The suspension was run down a size exclusion column packed with sephadex G-50 using buffer B (10 mM TRIS pH 8.5, 0.5 mM EDTA, 110 mM NaCl). The hydrodynamic dimeter of the lipids was monitored using an Anton Paar LitesizerTM 500 to ensure the separation of free and entrapped calcein.
Phospholipid concentration was adjusted to 30 µM for vesicle leakage experiments.
Vesicle leakage assay: Black bottom 96-well plates were prepared with the appropriate lipid solution (100 µL, 30 µM) and desired SSA solution (100 µL) prepared in H2O/EtOH 95: 5. A solution of 1 % Triton X-100 (16) was used for a 100 % lysis control and a H2O/EtOH 95: 5 solution was used as a 0 % lysis control. Fluorescent measurements were taken at 25 °C using an excitation value of 495 nm and an optimised gain of 983. Data were acquired in endpoint mode. All experiments were repeated in triplicate to ensure experimental reproducibility. […]
Data

MRSA USA300 [5] = assay: MIC50 determination and initial screening from OD600 growth curves, MRSA USA300; type: cell-based, Staphylococcus aureus; details: Staphylococcus aureus, 15 h, Table S3, conversion of the mM values of Table 1; MRSA USA300; after 900 mins
Description: as §1, §2, §3, §4, §5, §6, §7, §8, §9, §10, §11

Row | MIC50 (E. coli DH10B [2]) | MIC50 (MRSA USA300 [5]) | SMILES | MIC50 MRSA (MRSA USA300 [1]) | MIC50 E. coli (E. coli DH10B [3]; E. coli DH10B, n = 3, 0.5 McFarland standard, number in bracket = efficacy rank) | vesicle lysis activity [4] | initial antimicrobial screening, inhibition of growth, E. coli (E. coli DH10B [3]; 3.3 mM)
1 | 2820 µg/mL (≈ 12.5 mM) | 1440 µg/mL (≈ 6.34 mM) | CCCCNC(=S)NCS(=O)(=O)O [SSA 14] | 3.07(9) mM | 6.03(9) mM | almost complete loss of any vesicle lysis activity | –
2 | – | 1990 µg/mL (≈ 9.47 mM) | CCCCNC(=O)NCS(=O)(=O)O [SSA 13] | 4.41(10) mM | – | almost complete loss of any vesicle lysis activity | ^c (SSA did not pass initial antimicrobial screening, exhibited <10% inhibition of growth at 3.3 mM after 900 min and therefore excluded from further study)
